The values that follow come from paper PMC11312998, “Molecular Pro-Apoptotic Activities of Flavanone Derivatives in Cyclodextrin Complexes: New Implications for Anticancer Therapy” (International Journal of Molecular Sciences, 2024).

≈ marks a conversion by molar mass, not a printed value. Read-outs that look alike come from different tables or passages of the source.

One data set concerns HCC38. The data set is described as follows: MTT cytotoxicity assay. Type of data set: cell-based. The note with it: Homo sapiens, 24 h incubation, mean ± SEM. The method, then:
(§1) Cell viability was determined using the metabolic microplate spectrophotometric assay with Methylthiazolyl diphenyltetrazolium bromide (MTT), i.e., 3-(4,5-Dimethyl-2-thiazolyl)-2,5-diphenyl-2H-tetrazolium bromide (Sigma-Aldrich; St. Louis, MO, USA). The anticancer activity of the investigated compounds was evaluated in vitro on the basis of their ability to inhibit the proliferation of various cancer cells. The appropriate number of cells for a given cell line (6–8 × 10^3 cells/mL) were seeded into sterile, colorless 96-well microplates. After 24 h of culture, specific wells of the microplate were treated with test compounds (10–200 µmol/L concentration) and incubated in a CO2 incubator for 24 h. The medium was then removed, the cell monolayer was washed twice with sterile PBS solution and fresh culture medium was added to the wells of the microplate.
(§2) After 48 h of cell culture, the MTT test was conducted. In each well of the microplate, 50 µL of tetrazolium salt solution (final concentration 0.05 mg/mL) was added. The microplate was then placed in a CO2 incubator for 3–4 h (depending on the cell line). Following incubation, 100 µL of DMSO (dimethyl sulfoxide, Sigma-Aldrich, St. Louis, MO, USA) was added to the microplate wells to dissolve the purple formazan crystals formed in the environment of living cells. The absorbance of the formazan solution was read at a wavelength of λ = 580 nm and a reference wavelength of λ = 720 nm after gentle mixing (Biotek Power Wave HT, Biotek Instruments, Winooski, VT, USA).
(§3) The percentage of live cells was calculated by comparing the absorbance value of the tested samples with that of the control (cells not treated with compounds). Control absorbance was arbitrarily considered to be 100%.
(§4) In order to determine the contribution of ROS to the cytotoxicity of the tested compounds, the cells were pre-incubated for 1 h with the antioxidant vitamin E (Trolox, Sigma-Aldrich; St. Louis, MO, USA). Cells were seeded into sterile, colorless 96-well microplates at a concentration of 6–8 × 10^3 cells/mL, depending on the cell line. After 24 h of culture, Trolox was added at a final concentration of 50 μM/well. After 1 h of incubation, the antioxidant was washed off, then appropriate concentrations of test compounds (10–200 µmol/L concentration) were added to fresh cell culture medium and incubated for 24 h. The MTT test was then performed under identical experimental conditions, as described in Section 3.1.2.

The subject of the next data set is Hec-1-A. The data set is described as follows: MTT cytotoxicity assay. Type of data set: cell-based. The following applies: Homo sapiens, 24 h incubation, mean ± SEM. The method, then: as §1, §2, §3, §4
Background: Formazan colour is commonly taken as a measure of viable cells.

In another data set the test system is MCF-7. As to the kind of experiment: MTT cytotoxicity assay. Type of data set: cell-based. The following applies: Homo sapiens, MCF7, 24 h incubation, mean ± SEM. The method, then:
as §1, §2, §3, §4

The test system of another data set is MDA-MB-231. The data set is described as follows: MTT cytotoxicity assay. The format is cell-based. The following applies: Homo sapiens, 24 h incubation, mean ± SEM. The method, then: as §1, §2, §3, §4
A further data set concerns Ishikawa. The data set is described as follows: MTT cytotoxicity assay. Type of data set: cell-based. The following applies: Homo sapiens, Ishikawa, 24 h incubation, mean ± SEM. The method, then: as §1, §2
The percentage of live cells was calculated by comparing the absorbance value of the tested samples with that of the control (cells not treated with compounds). Control absorbance was arbitrarily considered to be 100%. […]

For data set [1], the system named is breast cancer cells (MCF-7, MDA-MB-231 and HCC38) and endometrial cancer cells (Ishikawa, Hec-1-A). As to the kind of experiment: MTT cytotoxicity assay, summary over the cell lines. The format is cell-based, human. The note with it: for cytotoxic activity (in words): range of 10–200 µM, all cancer lines. The method, then: as §1, §2
The percentage of live cells was calculated by comparing the absorbance value of the tested samples with that of the control (cells not treated with compounds). Control absorbance was arbitrarily considered to be 100%. […] Moreover, cisplatin (Sigma-Aldrich, St. Louis, MO, USA) was used as a reference compound, and identical incubation conditions were used as described above.

Another data set relates to cancer cells. As to the kind of experiment: Reactive oxygen species generation (results not published). Type of data set: cell-based.
Data set [2] in a line: Isothermal titration calorimetry (ITC) of inclusion complex formation. Type of data set: physicochemical. The note with it: DMSO, 25 °C. The method, then:
Measurements were carried out using a MicroCal VP-ITC100 microcalorimeter equipped with a 1400 μL measurement cell. All titrations were carried out under isothermal conditions at 25 degrees C in DMSO solution, which was used as a solvent. The mixing speed during the measurements was 351 rpm. The 0.2 mM solution of the ligand (3, 3a and 5) located in the measurement cell was titrated with the cyclodextrin solution located in the syringe. Each measurement consisted of 50 injections of cyclodextrin with a volume of 5 uL and a concentration of 5 mM. The interval between individual injections was 300 s. The effect of direct interaction of the ligand with CD was calculated by subtracting the thermal effects of diluting 5 mM cyclodextrin in a pure solvent. The dilution effect of the 0.2 mM ligand solution was negligible. The results obtained were processed in the MicroCall Origin 7 software. Using a single active site model (ITC Tutorial Guide), the stability constant K of the resulting complex, its stoichiometry n and thermodynamic parameters that describe the ongoing process were determined, viz., enthalpy (ΔH), Gibbs free energy (ΔG) and entropy (ΔS).
In general terms: Isothermal titration calorimetry measures the heat released or taken up as one component is titrated into another.

Data set [3] can be described thus: Water solubility by UV–Vis spectrophotometry (phase solubility with cyclodextrins). The format is physicochemical. The following applies: 25 °C, thermodynamic from solid, 298.15 K, without cyclodextrin, read-out: Solubility in H2O. The method, then: Spectrophotometric measurements were performed using a SPECORD 50 single-beam UV–Vis spectrophotometer (Analyst Jena, Thuringia, Germany). The calibration lines of the compounds tested were determined for the concentration range of 3.0 × 10^−6 M to 1 × 10^−4 M (Figure 21). The molar extinction coefficients for 3, 3a, and 5 were determined experimentally in an aqueous ethanol solution; the relevant maximum wavelengths are presented in Table 9. The influence of α-cyclodextrins, β-cyclodextrins and HP-β-cyclodextrins on the solubility of the tested ligands in water was evaluated in three measurement series. Briefly, excess ligand was introduced into closed Eppendorff tubes containing α-CD, β-CD or HP-β-CD solutions, at concentrations ranging from 1 to 90 mM for α-CD and HP-β-CD and from 1 to 15 mM for β-CD. The test tubes were stored for 10 days at a temperature of 298.15 K until equilibrium was achieved. After this time, the solutions were centrifuged using a Microcentrifuge MPW-55 at 13,000 rpm for five minutes. For testing, a clear solution was taken from above the sediment and diluted appropriately so that the spectrum was within the operating range of the spectrophotometer.

Data set [4] is described as follows: MTT cytotoxicity assay, model of normal cells. The format is cell-based. The note with it: human, HMEC-1 cells (model of normal cells), 24 h incubation, mean ± SEM, read-out: Cytotoxic effect of analogues incorporated in cyclodextrins and cyclodextrin, IC50. The method, then: as §1, §2, §3
The next data set has as its system RBCs. As to the kind of experiment: Erythrocyte morphology, phase contrast microscopy. The format is cell-based, human. The following applies: all tested concentrations; 24 h, 37 °C. The method, then: The experiments on human blood were performed in accordance with Polish national guidelines, and the study protocols were approved by the Bioethics Committee of the Medical University of Lodz, Poland: approval no (RNN/104/20/KE). The blood samples were obtained from healthy donors at the Blood Donation Centre in Lodz. The procedure for […] for erythrotoxicity studies is given in a previous paper. The influence of the synthesized compounds, together with a reference compound on RBC membrane integrity, was performed by lysis assay, described elsewhere. Briefly, 2% RBC suspension in 0.9% NaCl was incubated at 37 °C for 24 h with the tested compounds at concentrations of 100 µmol/L, 50 µmol/L, 25 µmol/L, 10 µmol/L and 1 µmol/L. The samples were centrifuged at 3000 rpm for 10 min, and the absorbance of the supernatant was measured at 550 nm. The results are presented as a percentage of hemolysis where a sample containing 10 μL of 2.0% v/v Triton X-100 was regarded as a positive control contributing to 100% of hemolysis. A sample containing saline solution represented the spontaneous hemolysis of RBCs (control). The experiments were conducted using at least three different biological materials (n = 3). […] Additionally, erythrocyte morphology was evaluated using a phase contrast Opta-Tech inverted microscope at 400× magnification.

Setting [5] is: read-out: Cytotoxic effect, IC50.
Setting [6] is: read-out: Cytotoxic effect of analogues incorporated in cyclodextrins and cyclodextrin, IC50.

Broadly, the IC50 is the concentration needed to halve the response being measured. On to `CCN(CC)c1ccc(/C=C2/C(=O)c3ccccc3OC2c2ccccc2)cc1` (stereo not drawn) [Compound 2], for which the IC50 with HCC38 (setting [5]) was greater than 200 µM; in the data set with Hec-1-A (setting [5]), greater than 200 µM; with MCF-7 (setting [5]), 122 ± 6.7 µM; in the data set on MDA-MB-231 (setting [5]), greater than 200 µM; with Ishikawa (setting [5]) it was greater than 200 µM. Further, the “cytotoxic activity (in words)” value in [1] is given as “very weak cytotoxic activity”. The “changes in the level of reactive oxygen species generation (in words)” value (“changes in the level” below) in the data set on cancer cells is given as “no statistically significant changes”.
By solubility is commonly meant the dissolved amount per volume that the medium holds. `COc1cccc(C2CN=NC23C(=O)c2ccccc2OC3c2ccccc2)c1` (stereo not drawn) [Compound 3a]: the IC50 is greater than 120 µM in the data set on HCC38 (setting [5]); 67.2 ± 2.5 µM in the data set on Hec-1-A (setting [5]); 84.2 ± 2.2 µM with MCF-7 (setting [5]); greater than 120 µM in the data set on MDA-MB-231 (setting [5]); 68.5 ± 4.6 µM in the data set with Ishikawa (setting [5]). Further, in data set [1], the “cytotoxic activity (in words)” value is recorded as “very weak cytotoxic activity”. Also, the “changes in the level” value with cancer cells is listed as “no statistically significant changes”. In addition, the results for the “K (formation constant)” value in [2] (HP-β-cyclodextrin), in data set [2] (α-cyclodextrin) and in [2] (β-cyclodextrin) were 5.66 × 10^3 ± 390, 1.51 × 10^3 ± 130 and 2.49 × 10^3 ± 200, respectively. Further, the “n (stoichiometry)” value in [2] (HP-β-cyclodextrin) amounted to 0.98 ± 0.09; in data set [2] (α-cyclodextrin) it was 0.85 ± 0.13; in data set [2] (β-cyclodextrin), 0.92 ± 0.11. Moreover, the ΔG is −21,420.7 J mol^−1 in [2] (HP-β-cyclodextrin), −18,145.5 J mol^−1 in data set [2] (α-cyclodextrin) and −19,385.4 J mol^−1 in data set [2] (β-cyclodextrin). For the same molecule, the ΔH in data set [2] (HP-β-cyclodextrin) is -0.185 ± 0.0141 kcal/mol; in [2] (α-cyclodextrin), -0.0669 ± 0.021 kcal/mol; in data set [2] (β-cyclodextrin) it was -0.202 ± 0.017 kcal/mol. Also, the ΔS turned out to be 69.3 J mol^−1K^−1 in [2] (HP-β-cyclodextrin), 59.9 J mol^−1K^−1 in [2] (α-cyclodextrin) and 62.2 J mol^−1K^−1 in [2] (β-cyclodextrin). The solubility at 10 days in [3] is 1.55 µM (≈ 0.596 µg/mL).
With `Cc1ccc(/C=C2/C(=O)c3ccccc3OC2c2ccccc2)cc1` (stereo not drawn) [Compound 4], the IC50 in the data set on HCC38 (setting [5]) was 93.2 ± 2.8 µM; with Hec-1-A (setting [5]) it was 44.6 ± 4.5 µM; in the data set on MCF-7 (setting [5]), 53.4 ± 4.1 µM; with MDA-MB-231 (setting [5]) it was greater than 120 µM; in the data set on Ishikawa (setting [5]), 48.9 ± 6.1 µM. For the same molecule, the “cytotoxic activity (in words)” value in data set [1] is “very weak cytotoxic activity”. Further, the “changes in the level” value in the data set with cancer cells is recorded as “no statistically significant changes”.
Turning to `OC[C@H]1O[C@@H]2O[C@H]3[C@H](O)[C@@H](O)[C@@H](O[C@H]4[C@H](O)[C@@H](O)[C@@H](O[C@H]5[C@H](O)[C@@H](O)[C@@H](O[C@H]6[C@H](O)[C@@H](O)[C@@H](O[C@H]7[C@H](O)[C@@H](O)[C@@H](O[C@H]8[C@H](O)[C@@H](O)[C@@H](O[C@H]1[C@H](O)[C@H]2O)O[C@@H]8CO)O[C@@H]7CO)O[C@@H]6CO)O[C@@H]5CO)O[C@@H]4CO)O[C@@H]3CO` [β-CD, β-cyclodextrin, reference compound], the IC50 in the data set with HCC38 (setting [6]), with Hec-1-A (setting [6]), in the data set with MCF-7 (setting [6]), in the data set on MDA-MB-231 (setting [6]) and in the data set on Ishikawa (setting [6]) was greater than 120 µM in each case. Also, in data set [4], the IC50 at 24 h is greater than 120 µM. The “cytotoxic activity of pure cyclodextrin (in words)” value in data set [1] (HMEC-1 endothelial cells or any tested cancer cells, 10–120 µM) is “not found to demonstrate any cytotoxic activity”. For the same molecule, the “RBC morphology (in words)” value in the data set with RBCs is “no pathological changes in RBCs or damaged cells were observed”.
